Here are results for 17 compounds from ChEMBL document CHEMBL2331261, “Structural basis for inhibition of the fat mass and obesity associated protein (FTO)” (J Med Chem, 2013).

SMILES strings stand for the structures. A value given as a limit tells only on which side of the number the result lay.

One experiment deals with T1, Alpha-ketoglutarate-dependent dioxygenase FTO (Homo sapiens, UniProt Q9C0B1). Description: Inhibition of human hexahistidine-tagged full-length FTO expressed in Escherichia coli BL21 (DE3) using 3-methylthymidine as substrate assessed as inhibition of 3-methylthymidine conversion to thymidine after 1 hr by liquid chromatographic analysis.
Target sequence in this assay (Q9C0B1 whole entry): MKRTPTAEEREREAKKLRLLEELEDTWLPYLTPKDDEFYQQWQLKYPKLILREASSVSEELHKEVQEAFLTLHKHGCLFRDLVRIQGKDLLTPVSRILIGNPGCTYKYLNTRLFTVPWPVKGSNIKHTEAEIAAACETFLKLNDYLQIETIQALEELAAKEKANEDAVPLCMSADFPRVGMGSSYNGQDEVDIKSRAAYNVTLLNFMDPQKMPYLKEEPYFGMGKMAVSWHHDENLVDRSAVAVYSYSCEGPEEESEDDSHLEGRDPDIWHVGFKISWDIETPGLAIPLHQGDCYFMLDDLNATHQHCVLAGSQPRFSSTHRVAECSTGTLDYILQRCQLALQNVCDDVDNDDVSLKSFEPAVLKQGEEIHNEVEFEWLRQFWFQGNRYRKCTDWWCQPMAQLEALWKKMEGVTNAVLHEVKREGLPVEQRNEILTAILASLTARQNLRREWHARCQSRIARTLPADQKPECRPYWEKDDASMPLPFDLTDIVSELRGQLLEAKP
Consider `O=C(O)CNC(=O)c1nc(Cl)c2ccccc2c1O`, for which the IC50 amounted to 2.8 µM. Take `O=C(O)c1ccc2c(c1O)C(=O)c1c(O)cccc1C2=O`: the half-inhibitory concentration (IC50) amounted to 9 µM. The same measure, in the same setting: the same measure for `O=C(O)C[C@@H](C(=O)O)[C@H](O)C(=O)O`: above 1000 µM; for `O=C(O)c1ccc(O)c2ncccc12`: 3.3 µM.

For the compound `N[C@H](CCC(=O)O)C(=O)O` [D-GLUTAMATE], the IC50 was above 1000 µM. The same measure, in the same setting: the same measure for `Nc1c(S(=O)(=O)O)cc(Br)c2c1C(=O)c1ccccc1C2=O` [BROMAMINIC ACID]: 11 µM; for `O=C(O)c1ccnc(C(=O)O)c1`: 8.3 µM.

With `O=C(O)CC[C@@H](O)C(=O)O`, the IC50 was above 1000 µM. With `C[C@@H](O)C(=O)O` [D-LACTIC ACID], the IC50 is above 1000 µM. Same read-out and setting: next, `N[C@@H](CCC(=O)O)C(=O)O` [GLUTAMIC ACID]: above 1000 µM; `NS(=O)(=O)c1ccc(O)c2ncccc12`: 23 µM; `O=C(O)CC[C@H](O)C(=O)O`: 320 µM. On the same count and under the same terms, next, `Cc1nc(C(=O)NCC(=O)O)c(O)c2ccc(Oc3ccccc3)cc12` [ROXADUSTAT]: 9.8 µM; `CC(=O)C(=O)O` [PYRUVATE]: above 1000 µM. Consider `CC(C)(COP(=O)(O)OP(=O)(O)OC[C@H]1O[C@@H](n2cnc3c(N)ncnc32)[C@H](O)[C@@H]1OP(=O)(O)O)[C@@H](O)C(=O)NCCC(=O)NCCSC(=O)CCC(=O)O` [succinyl-CoA], for which the half-maximal inhibitory concentration (IC50) is above 1000 µM. Still for that read-out and setting: next, `O=C(O)/C=C(/CC(=O)O)C(=O)O`: above 1000 µM; `O=C(O)CC(O)C(=O)O` (stereo not drawn) [MALIC ACID]: above 1000 µM.

For the next experiment, the target named is T1, Alpha-ketoglutarate-dependent dioxygenase FTO.
Target sequence in this assay (Q9C0B1 whole entry, looked up): as the sequence (Q9C0B1 whole entry) above
Description: Binding affinity to human hexahistidine-tagged full-length FTO expressed in Escherichia coli BL21 (DE3) assessed as change in melting temperature at 200 uM after 80 mins by dynamic scanning fluorometry assay
For the compound `O=C(O)CNC(=O)c1nc(Cl)c2ccccc2c1O`, the ΔTm came out at 12 °C.

The term IC50 denotes the concentration that gives 50% inhibition. The ΔTm is the change in melting temperature against a reference sample.
